Experimental data published in publication PMC5428509, “Irreversible inhibition of BTK kinase by a novel highly selective inhibitor CHMFL-BTK-11 suppresses inflammatory response in rheumatoid arthritis model” (Scientific Reports, 2017).

What was measured:
Assay in all cases: biochemical
Design in all cases: KinomeScan competition binding panel (DiscoveRx), percent of control at 1 uM
Conditions in all cases: read-out: Percent Control
CDK2 = CDK2 (Homo sapiens, UniProt P24941)
Summary of the method: (§1)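 Selectivity profiled across 456 kinases/mutants by KinomeScan binding technology.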

SRMS = SRMS (Homo sapiens, UniProt Q9H3Y6)
Summary of the method: as §1

CSNK1E = CSNK1E (Homo sapiens, UniProt P49674)
Summary of the method: as §1

SLK = SLK (Homo sapiens, UniProt Q9H2G2)
Summary of the method: as §1

PIP5K2B = target: T1, PIP5K2B (Homo sapiens, UniProt P78356)
T1 construct: gene PIP4K2B
Summary of the method: as §1

FLT3(K663Q) = FLT3(K663Q) (Homo sapiens, UniProt P36888, K663Q)
Summary of the method: as §1

MRCKB = target: T2, MRCKB (Homo sapiens, UniProt Q9Y5S2)
T2 construct: gene CDC42BPB
Summary of the method: as §1

EGFR(L858R) = EGFR(L858R) (Homo sapiens, UniProt P00533, L858R)
Summary of the method: as §1

[1] = target: T3, ABL1(M351T)-phosphorylated (Homo sapiens, UniProt P00519, M351T)
T3 construct: phosphorylated
Summary of the method: as §1

FLT3 = FLT3 (Homo sapiens, UniProt P36888)
Summary of the method: as §1

[2] = target: T4, RSK3(Kin.Dom.2-C-terminal) (Homo sapiens, UniProt Q15349)
T4 construct: gene RPS6KA2; Kin.Dom.2-C-terminal
Summary of the method: as §1

SBK1 = SBK1 (Homo sapiens, UniProt Q52WX2)
Summary of the method: as §1

CDK3 = CDK3 (Homo sapiens, UniProt Q00526)
Summary of the method: as §1

FES = FES (Homo sapiens, UniProt P07332)
Summary of the method: as §1

PIM3 = PIM3 (Homo sapiens, UniProt Q86V86)
Summary of the method: as §1

PRKD3 = PRKD3 (Homo sapiens, UniProt O94806)
Summary of the method: as §1

AXL = AXL (Homo sapiens, UniProt P30530)
Summary of the method: as §1

GRK7 = GRK7 (Homo sapiens, UniProt Q8WTQ7)
Summary of the method: as §1

EPHB1 = EPHB1 (Homo sapiens, UniProt P54762)
Summary of the method: as §1

PIK3CA(E542K) = PIK3CA(E542K) (Homo sapiens, UniProt P42336, E542K)
Summary of the method: as §1

MST4 = target: T5, MST4 (Homo sapiens, UniProt Q9P289)
T5 construct: gene STK26
Summary of the method: as §1

PRKR = target: T6, PRKR (Homo sapiens, UniProt P19525)
T6 construct: gene EIF2AK2
Summary of the method: as §1

RIPK2 = RIPK2 (Homo sapiens, UniProt O43353)
Summary of the method: as §1

ITK = ITK (Homo sapiens, UniProt Q08881)
Summary of the method: as §1

PDPK1 = PDPK1 (Homo sapiens, UniProt O15530)
Summary of the method: as §1

Sequence of SLK (Q9H2G2 whole entry): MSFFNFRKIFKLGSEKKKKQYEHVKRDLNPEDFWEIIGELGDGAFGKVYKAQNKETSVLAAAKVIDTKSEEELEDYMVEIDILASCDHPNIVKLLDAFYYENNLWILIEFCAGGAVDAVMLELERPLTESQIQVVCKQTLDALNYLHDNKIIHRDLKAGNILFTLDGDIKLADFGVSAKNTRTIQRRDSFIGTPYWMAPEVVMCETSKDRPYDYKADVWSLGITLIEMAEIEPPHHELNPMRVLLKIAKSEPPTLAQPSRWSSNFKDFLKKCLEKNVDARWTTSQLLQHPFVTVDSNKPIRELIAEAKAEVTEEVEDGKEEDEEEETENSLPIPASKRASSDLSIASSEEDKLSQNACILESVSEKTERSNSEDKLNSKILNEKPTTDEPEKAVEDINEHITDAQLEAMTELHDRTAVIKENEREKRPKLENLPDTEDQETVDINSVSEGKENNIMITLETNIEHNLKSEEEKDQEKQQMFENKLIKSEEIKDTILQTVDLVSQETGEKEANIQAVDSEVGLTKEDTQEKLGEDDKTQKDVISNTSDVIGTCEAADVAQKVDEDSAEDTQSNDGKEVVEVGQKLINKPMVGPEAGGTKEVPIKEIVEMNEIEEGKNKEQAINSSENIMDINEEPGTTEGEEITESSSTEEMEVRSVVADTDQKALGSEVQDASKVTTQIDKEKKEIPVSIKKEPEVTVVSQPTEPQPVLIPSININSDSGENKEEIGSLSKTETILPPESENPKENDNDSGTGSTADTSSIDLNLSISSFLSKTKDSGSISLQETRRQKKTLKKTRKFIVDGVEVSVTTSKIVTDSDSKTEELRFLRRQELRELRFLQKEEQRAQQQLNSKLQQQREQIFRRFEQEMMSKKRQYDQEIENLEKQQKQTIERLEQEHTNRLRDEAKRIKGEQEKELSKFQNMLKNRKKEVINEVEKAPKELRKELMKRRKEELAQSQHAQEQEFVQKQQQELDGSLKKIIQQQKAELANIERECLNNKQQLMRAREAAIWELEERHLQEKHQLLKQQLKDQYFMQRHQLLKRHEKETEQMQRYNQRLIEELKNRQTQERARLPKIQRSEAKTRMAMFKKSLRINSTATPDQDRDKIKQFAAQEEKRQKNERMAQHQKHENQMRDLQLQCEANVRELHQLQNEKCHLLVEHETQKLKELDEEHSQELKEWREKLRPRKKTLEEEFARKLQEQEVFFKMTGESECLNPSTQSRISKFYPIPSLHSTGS
Sequence of PDPK1 (O15530 whole entry): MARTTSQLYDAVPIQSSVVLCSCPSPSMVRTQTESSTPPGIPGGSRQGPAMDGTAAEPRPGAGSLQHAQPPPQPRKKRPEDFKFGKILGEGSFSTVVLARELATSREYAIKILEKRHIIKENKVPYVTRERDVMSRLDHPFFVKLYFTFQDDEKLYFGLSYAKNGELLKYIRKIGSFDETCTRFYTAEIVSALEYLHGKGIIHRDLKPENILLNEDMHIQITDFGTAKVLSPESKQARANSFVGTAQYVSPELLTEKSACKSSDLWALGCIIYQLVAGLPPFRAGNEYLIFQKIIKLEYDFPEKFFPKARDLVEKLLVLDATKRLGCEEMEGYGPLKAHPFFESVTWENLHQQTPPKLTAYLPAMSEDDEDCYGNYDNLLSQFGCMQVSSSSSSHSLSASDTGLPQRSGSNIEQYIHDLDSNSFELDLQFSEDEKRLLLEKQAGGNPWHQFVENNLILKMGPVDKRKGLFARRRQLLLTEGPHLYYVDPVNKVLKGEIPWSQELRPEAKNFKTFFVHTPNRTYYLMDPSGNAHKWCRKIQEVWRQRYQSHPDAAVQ
Sequence of RIPK2 (O43353 whole entry): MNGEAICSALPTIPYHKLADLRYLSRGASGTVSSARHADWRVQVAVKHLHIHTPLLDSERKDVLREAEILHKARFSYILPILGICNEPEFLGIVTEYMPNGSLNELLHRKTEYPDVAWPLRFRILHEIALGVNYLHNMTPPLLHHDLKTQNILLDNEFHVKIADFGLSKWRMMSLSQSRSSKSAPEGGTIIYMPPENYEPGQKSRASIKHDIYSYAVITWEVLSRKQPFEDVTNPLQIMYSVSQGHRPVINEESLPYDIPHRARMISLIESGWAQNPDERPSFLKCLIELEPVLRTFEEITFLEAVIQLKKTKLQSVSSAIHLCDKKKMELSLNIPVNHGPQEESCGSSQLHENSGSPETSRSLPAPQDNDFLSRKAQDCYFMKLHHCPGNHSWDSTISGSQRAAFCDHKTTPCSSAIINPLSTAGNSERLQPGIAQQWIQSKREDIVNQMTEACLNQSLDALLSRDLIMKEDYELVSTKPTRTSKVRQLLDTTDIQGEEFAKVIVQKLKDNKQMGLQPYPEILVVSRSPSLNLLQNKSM
Sequence of PRKD3 (O94806 whole entry): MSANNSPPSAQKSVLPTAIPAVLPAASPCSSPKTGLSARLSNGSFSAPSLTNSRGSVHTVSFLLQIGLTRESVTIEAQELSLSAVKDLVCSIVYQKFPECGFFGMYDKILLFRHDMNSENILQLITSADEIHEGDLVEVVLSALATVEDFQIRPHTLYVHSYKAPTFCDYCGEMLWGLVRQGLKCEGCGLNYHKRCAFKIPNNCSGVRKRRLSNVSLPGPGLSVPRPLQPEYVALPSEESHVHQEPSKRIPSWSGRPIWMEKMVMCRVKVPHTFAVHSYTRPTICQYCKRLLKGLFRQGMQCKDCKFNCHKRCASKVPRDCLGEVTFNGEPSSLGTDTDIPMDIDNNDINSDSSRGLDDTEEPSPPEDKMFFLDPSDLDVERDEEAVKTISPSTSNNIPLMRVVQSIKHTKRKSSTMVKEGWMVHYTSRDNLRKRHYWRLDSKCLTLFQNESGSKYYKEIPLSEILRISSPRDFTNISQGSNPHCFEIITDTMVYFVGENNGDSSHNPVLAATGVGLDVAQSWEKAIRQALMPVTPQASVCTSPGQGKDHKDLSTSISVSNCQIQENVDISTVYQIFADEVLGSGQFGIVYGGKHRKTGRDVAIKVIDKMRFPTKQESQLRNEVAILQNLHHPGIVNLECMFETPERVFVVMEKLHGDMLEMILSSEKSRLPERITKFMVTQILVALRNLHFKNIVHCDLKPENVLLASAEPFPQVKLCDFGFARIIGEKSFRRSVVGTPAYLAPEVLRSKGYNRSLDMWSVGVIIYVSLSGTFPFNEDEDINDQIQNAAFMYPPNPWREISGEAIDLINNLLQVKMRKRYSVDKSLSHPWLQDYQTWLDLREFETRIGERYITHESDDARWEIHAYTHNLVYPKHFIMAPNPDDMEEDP
Sequence of CSNK1E (P49674 whole entry): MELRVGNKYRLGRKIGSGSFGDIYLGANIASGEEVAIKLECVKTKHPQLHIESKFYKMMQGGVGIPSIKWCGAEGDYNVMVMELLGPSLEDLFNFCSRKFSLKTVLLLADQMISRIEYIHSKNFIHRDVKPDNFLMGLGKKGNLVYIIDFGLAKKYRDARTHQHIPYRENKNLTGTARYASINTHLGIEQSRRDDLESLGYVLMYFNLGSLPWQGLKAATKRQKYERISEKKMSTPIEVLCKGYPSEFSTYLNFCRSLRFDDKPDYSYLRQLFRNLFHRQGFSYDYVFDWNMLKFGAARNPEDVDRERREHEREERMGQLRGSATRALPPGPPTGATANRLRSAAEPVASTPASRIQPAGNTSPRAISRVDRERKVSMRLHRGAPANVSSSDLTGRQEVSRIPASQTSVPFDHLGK
T4 sequence (Q15349 whole entry): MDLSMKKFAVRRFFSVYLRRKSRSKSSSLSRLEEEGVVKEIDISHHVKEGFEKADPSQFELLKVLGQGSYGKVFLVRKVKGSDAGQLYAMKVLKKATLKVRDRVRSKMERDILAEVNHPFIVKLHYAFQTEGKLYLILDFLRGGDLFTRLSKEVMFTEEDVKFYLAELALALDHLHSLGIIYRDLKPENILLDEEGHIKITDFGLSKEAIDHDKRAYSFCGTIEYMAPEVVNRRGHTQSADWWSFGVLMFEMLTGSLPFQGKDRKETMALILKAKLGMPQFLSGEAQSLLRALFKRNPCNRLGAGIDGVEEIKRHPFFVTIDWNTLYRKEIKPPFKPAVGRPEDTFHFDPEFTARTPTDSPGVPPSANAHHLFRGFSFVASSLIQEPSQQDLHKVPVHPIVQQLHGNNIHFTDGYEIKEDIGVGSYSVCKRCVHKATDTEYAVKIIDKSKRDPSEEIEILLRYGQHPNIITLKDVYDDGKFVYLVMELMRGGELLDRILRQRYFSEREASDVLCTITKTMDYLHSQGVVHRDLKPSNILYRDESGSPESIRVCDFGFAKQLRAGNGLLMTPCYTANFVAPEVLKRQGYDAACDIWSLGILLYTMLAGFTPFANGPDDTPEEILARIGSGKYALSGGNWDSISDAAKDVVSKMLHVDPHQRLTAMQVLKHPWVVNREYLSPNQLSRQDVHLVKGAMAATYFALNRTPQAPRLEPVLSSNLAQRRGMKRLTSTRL
Sequence of ITK (Q08881 whole entry): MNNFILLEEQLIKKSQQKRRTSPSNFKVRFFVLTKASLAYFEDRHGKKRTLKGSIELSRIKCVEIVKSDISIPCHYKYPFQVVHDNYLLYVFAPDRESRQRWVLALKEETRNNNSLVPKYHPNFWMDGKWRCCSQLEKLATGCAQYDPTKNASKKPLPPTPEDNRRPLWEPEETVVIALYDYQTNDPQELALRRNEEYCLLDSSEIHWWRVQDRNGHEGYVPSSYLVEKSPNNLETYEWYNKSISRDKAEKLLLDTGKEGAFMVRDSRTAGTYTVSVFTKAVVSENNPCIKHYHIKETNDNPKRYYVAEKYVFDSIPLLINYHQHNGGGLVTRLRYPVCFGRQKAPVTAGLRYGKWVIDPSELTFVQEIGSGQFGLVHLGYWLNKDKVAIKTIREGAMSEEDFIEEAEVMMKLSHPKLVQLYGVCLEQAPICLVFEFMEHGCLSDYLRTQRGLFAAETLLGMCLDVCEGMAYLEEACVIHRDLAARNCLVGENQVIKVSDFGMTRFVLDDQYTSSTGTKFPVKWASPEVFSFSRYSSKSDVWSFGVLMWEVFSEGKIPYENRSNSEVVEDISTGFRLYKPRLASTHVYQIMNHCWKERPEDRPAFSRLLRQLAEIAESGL

C=CC(=O)Nc1cc(-n2c(=O)ccc3cnc4ccc(-n5cccn5)cc4c32)ccc1C [CHMFL-BTK-11]
remaining binding at 1 µM (CDK2): 100% | remaining binding at 1 µM (SRMS): 88% | remaining binding at 1 µM (CSNK1E): 100% | remaining binding at 1 µM (SLK): 100% | remaining binding at 1 µM (PIP5K2B): 100% | remaining binding at 1 µM (FLT3(K663Q)): 100% | remaining binding at 1 µM (MRCKB): 100% | remaining binding at 1 µM (EGFR(L858R)): 70% | remaining binding at 1 µM [1]: 72% | remaining binding at 1 µM (FLT3): 100% | remaining binding at 1 µM [2]: 100% | remaining binding at 1 µM (SBK1): 81% | remaining binding at 1 µM (CDK3): 100% | remaining binding at 1 µM (FES): 90% | remaining binding at 1 µM (PIM3): 95% | remaining binding at 1 µM (PRKD3): 100% | remaining binding at 1 µM (AXL): 100% | remaining binding at 1 µM (GRK7): 100% | remaining binding at 1 µM (EPHB1): 100% | remaining binding at 1 µM (PIK3CA(E542K)): 91% | remaining binding at 1 µM (MST4): 96% | remaining binding at 1 µM (PRKR): 80% | remaining binding at 1 µM (RIPK2): 100% | remaining binding at 1 µM (ITK): 100% | remaining binding at 1 µM (PDPK1): 90%
